Assay results taken from ChEMBL document CHEMBL1135461, “Conformations and receptor activity of desmopressin analogues, which contain gamma-turn mimetics or a psi[CH(2)O] isostere” (2002).

Test system: Rattus norvegicus
Experiment: In vivo antidiuretic activity in female Sprague-Dawley rats by intravenous administration using Vasopressin house standard (561 IU/mg)

Structure (SMILES) | Agonist activity
C[C@@H]1NC(=O)[C@H](Cc2ccccc2)NC(=O)[C@H](Cc2ccc(O)cc2)NC(=O)CCSSC[C@@H](C(=O)N2CCC[C@H]2C(=O)N[C@H](CCCN=C(N)N)C(=O)NCC(N)=O)NC(=O)[C@H](CC(N)=O)NC1=O | 645 IU mg-1
C[C@@H]1OC[C@H](Cc2ccccc2)NC(=O)[C@H](Cc2ccc(O)cc2)NC(=O)CCSSC[C@@H](C(=O)N2CCC[C@H]2C(=O)N[C@H](CCCN=C(N)N)C(=O)NCC(N)=O)NC(=O)[C@H](CC(N)=O)NC1=O | 0.56 IU mg-1
N=C(N)NCCC[C@H](NC(=O)[C@@H]1CCCN1C(=O)[C@@H]1CSSC[C@H](N)C(=O)N[C@@H](Cc2ccc(O)cc2)C(=O)N[C@@H](Cc2ccccc2)C(=O)N[C@@H](CCC(N)=O)C(=O)N[C@@H](CC(N)=O)C(=O)N1)C(=O)NCC(N)=O [VASOPRESSIN] | 561 IU mg-1
N=C(N)NCCC[C@@H](NC(=O)[C@@H]1CCCN1C(=O)[C@@H]1CSSCCC(=O)N[C@@H](Cc2ccc(O)cc2)C(=O)N[C@@H](Cc2ccccc2)C(=O)N[C@@H](CCC(N)=O)C(=O)N[C@@H](CC(N)=O)C(=O)N1)C(=O)NCC(N)=O [DESMOPRESSIN] | 1000 IU mg-1
CC1OC2CN(C1=O)[C@@H](CC(N)=O)C(=O)N[C@H](C(=O)N1CCC[C@H]1C(=O)N[C@H](CCCN=C(N)N)C(=O)NCC(N)=O)CSSCCC(=O)N[C@@H](Cc1ccc(O)cc1)C(=O)N[C@H]2Cc1ccccc1 (stereo in doubt; 6) | 0.0026 IU mg-1
